Assay results from patent publication US6737383B1, “Herbicidal oxadiazolidines” (priority 1999, dated 2004).

How the values were obtained:
purple nutsedge = assay: Test B pre/postemergence purple nutsedge; type: in vivo, Cyperus rotundus
How it was run: (§1)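 Test chemicals in a non-phytotoxic solvent mixture with surfactant were sprayed preemergence onto planted seeds and postemergence onto plants 2 to 18 cm tall (1- to 4-leaf stage). After twelve to sixteen days in a greenhouse, injury was visually rated against untreated controls from 0 (no effect) to 10 (complete control).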

giant foxtail = assay: Test B pre/postemergence giant foxtail; type: in vivo, Setaria faberii
How it was run: as §1

soybean = assay: Test B pre/postemergence soybean; type: in vivo, Glycine max
How it was run: as §1

rape = assay: Test B pre/postemergence rape; type: in vivo, Brassica napus
How it was run: as §1

blackgrass = assay: Test B pre/postemergence blackgrass; type: in vivo, Alopecurus myosuroides
How it was run: as §1

corn = assay: Test B pre/postemergence corn; type: in vivo, Zea mays
How it was run: as §1

cocklebur = assay: Test B pre/postemergence cocklebur; type: in vivo, Xanthium strumarium
How it was run: as §1

morningglory = assay: Test B pre/postemergence morningglory; type: in vivo, Ipomoea hederacea
How it was run: as §1

sugar beet = assay: Test B pre/postemergence sugar beet; type: in vivo, Beta vulgaris
How it was run: as §1

pigweed = assay: Test B pre/postemergence pigweed; type: in vivo, Amaranthus retroflexus
How it was run: as §1

wild oat = assay: Test B pre/postemergence wild oat; type: in vivo, Avena fatua
How it was run: as §1

velvetleaf = assay: Test B pre/postemergence velvetleaf; type: in vivo, Abutilon theophrasti
How it was run: as §1

bedstraw = assay: Test B pre/postemergence bedstraw; type: in vivo, Galium aparine
How it was run: as §1

surinam grass = assay: Test B pre/postemergence surinam grass; type: in vivo, Brachiaria decumbens
How it was run: as §1

crabgrass = assay: Test B pre/postemergence crabgrass; type: in vivo, Digitaria sanguinalis
How it was run: as §1

wheat = assay: Test B pre/postemergence wheat; type: in vivo, Triticum aestivum
How it was run: as §1

[1] = Postemergence, Rate 62 g/ha, scale 0 to 10, 0 is no effect, 10 is complete control
[2] = Postemergence, Rate 125 g/ha, scale of 0 to 10 where 0 is no effect and 10 is complete control
[3] = Preemergence, Rate 62 g/ha, scale of 0 to 10 where 0 is no effect and 10 is complete control
[4] = Preemergence, Rate 250 g/ha, scale 0 (no effect) to 10 (complete control)
[5] = Rate 250 g/ha, Postemergence, scale 0 to 10, 0 is no effect, 10 is complete control
[6] = Rate 500 g/ha, Postemergence, scale 0 to 10, 0 is no effect, 10 is complete control
[7] = Preemergence, Rate 125 g/ha, scale of 0 to 10 where 0 is no effect and 10 is complete control
[8] = Preemergence, Rate 500 g/ha, scale of 0 to 10 where 0 is no effect and 10 is complete control

What does the source list for `CC(C)N(C(=O)n1oc(=O)n(CC(F)F)c1=O)c1ccc(F)cc1F` [Compound 711]?
Plant response rating, Nutsedge (purple nutsedge; [1]): 0; Nutsedge plant response rating (purple nutsedge; [2]): 0; Nutsedge plant response rating (purple nutsedge; [3]): 0; Nutsedge plant response rating (purple nutsedge; [4]): 0; Nutsedge plant response rating (purple nutsedge; [5]): 3; Nutsedge plant response rating (purple nutsedge; [6]): 5; Plant response rating, Giant foxtail (giant foxtail; [1]): 6; Giant foxtail plant response rating (giant foxtail; [2]): 8; Giant foxtail plant response rating (giant foxtail; [3]): 10; Plant response rating, Giant foxtail (giant foxtail; [7]): 10; Giant foxtail plant response rating (giant foxtail; [4]): 10; Giant foxtail plant response rating (giant foxtail; [5]): 9; Giant foxtail plant response rating (giant foxtail; [6]): 9; Plant response rating, Soybean (soybean; [1]): 1; Soybean plant response rating (soybean; [2]): 4; Soybean plant response rating (soybean; [3]): 0; Plant response rating, Soybean (soybean; [7]): 0; Soybean plant response rating (soybean; [4]): 0; Soybean plant response rating (soybean; [5]): 5; Soybean plant response rating (soybean; [6]): 6; Plant response rating, Rape (rape; [1]): 0; Rape plant response rating (rape; [2]): 0; Rape plant response rating (rape; [3]): 1; Plant response rating, Rape (rape; [7]): 6; Rape plant response rating (rape; [4]): 7; Rape plant response rating (rape; [5]): 2; Rape plant response rating (rape; [6]): 4; Plant response rating, Blackgrass (blackgrass; [1]): 3; Blackgrass plant response rating (blackgrass; [2]): 7; Blackgrass plant response rating (blackgrass; [3]): 6; Plant response rating, Blackgrass (blackgrass; [7]): 6; Blackgrass plant response rating (blackgrass; [4]): 8; Plant response rating, Blackgrass (blackgrass; [8]): 9; Blackgrass plant response rating (blackgrass; [5]): 7; Blackgrass plant response rating (blackgrass; [6]): 7; Plant response rating, Corn (corn; [1]): 0; Corn plant response rating (corn; [2]): 0; Corn plant response rating (corn; [3]): 0; Plant response rating, Corn (corn; [7]): 0; Corn plant response rating (corn; [4]): 0; Corn plant response rating (corn; [5]): 0; Corn plant response rating (corn; [6]): 4; Plant response rating, Cocklebur (cocklebur; [1]): 1; Cocklebur plant response rating (cocklebur; [2]): 1; Cocklebur plant response rating (cocklebur; [3]): 0; Plant response rating, Cocklebur (cocklebur; [7]): 0; Cocklebur plant response rating (cocklebur; [4]): 0; Plant response rating, Cocklebur (cocklebur; [8]): 0; Cocklebur plant response rating (cocklebur; [5]): 2; Cocklebur plant response rating (cocklebur; [6]): 7; Plant response rating, Morningglory (morningglory; [1]): 2; Morningglory plant response rating (morningglory; [2]): 2; Morningglory plant response rating (morningglory; [3]): 0; Plant response rating, Morningglory (morningglory; [7]): 1; Morningglory plant response rating (morningglory; [4]): 3; Morningglory plant response rating (morningglory; [5]): 4; Morningglory plant response rating (morningglory; [6]): 4; Plant response rating, Sugarbeets (sugar beet; [1]): 1; Sugarbeets plant response rating (sugar beet; [2]): 2; Sugarbeets plant response rating (sugar beet; [3]): 5; Plant response rating, Sugarbeets (sugar beet; [7]): 6; Sugarbeets plant response rating (sugar beet; [4]): 8; Sugarbeets plant response rating (sugar beet; [5]): 2; Sugarbeets plant response rating (sugar beet; [6]): 3; Plant response rating, Redroot pigweed (pigweed; [1]): 3; Redroot pigweed plant response rating (pigweed; [2]): 7; Redroot pigweed plant response rating (pigweed; [3]): 7; Plant response rating, Redroot pigweed (pigweed; [7]): 7; Redroot pigweed plant response rating (pigweed; [4]): 9; Redroot pigweed plant response rating (pigweed; [5]): 9; Redroot pigweed plant response rating (pigweed; [6]): 10; Plant response rating, Wild oats (wild oat; [1]): 0; Wild oats plant response rating (wild oat; [2]): 0; Wild oats plant response rating (wild oat; [3]): 7; Plant response rating, Wild oats (wild oat; [7]): 7; Wild oats plant response rating (wild oat; [4]): 9; Wild oats plant response rating (wild oat; [5]): 2; Wild oats plant response rating (wild oat; [6]): 4; Plant response rating, Velvetleaf (velvetleaf; [1]): 3; Velvetleaf plant response rating (velvetleaf; [2]): 5; Velvetleaf plant response rating (velvetleaf; [3]): 4; Plant response rating, Velvetleaf (velvetleaf; [7]): 6; Velvetleaf plant response rating (velvetleaf; [4]): 6; Velvetleaf plant response rating (velvetleaf; [5]): 6; Velvetleaf plant response rating (velvetleaf; [6]): 6; Bedstraw plant response rating (bedstraw; [3]): 2; Plant response rating, Bedstraw (bedstraw; [7]): 3; Bedstraw plant response rating (bedstraw; [4]): 6; Plant response rating, Bedstraw (bedstraw; [8]): 7; Bedstraw plant response rating (bedstraw; [5]): 8; Plant response rating, B. signalgrass (surinam grass; [1]): 4; B. signalgrass plant response rating (surinam grass; [2]): 6; B. signalgrass plant response rating (surinam grass; [3]): 2; Plant response rating, B. signalgrass (surinam grass; [7]): 2; B. signalgrass plant response rating (surinam grass; [4]): 7; Plant response rating, B. signalgrass (surinam grass; [8]): 8; B. signalgrass plant response rating (surinam grass; [5]): 6; B. signalgrass plant response rating (surinam grass; [6]): 8; Plant response rating, Crabgrass (crabgrass; [1]): 4; Crabgrass plant response rating (crabgrass; [2]): 8; Crabgrass plant response rating (crabgrass; [3]): 8; Plant response rating, Crabgrass (crabgrass; [7]): 9; Crabgrass plant response rating (crabgrass; [4]): 10; Crabgrass plant response rating (crabgrass; [5]): 9; Crabgrass plant response rating (crabgrass; [6]): 10; Plant response rating, Wheat (wheat; [1]): 0; Wheat plant response rating (wheat; [2]): 0; Wheat plant response rating (wheat; [3]): 2; Plant response rating, Wheat (wheat; [7]): 6; Wheat plant response rating (wheat; [4]): 8; Wheat plant response rating (wheat; [5]): 3; Wheat plant response rating (wheat; [6]): 5
